# US20060135494A1, “Methods of treating injuries of the nervous system associated with hemorrhage” (priority 2002, published 2006)
# Tests used:
# [1] = system: Bcl-2, Bcl-xL, Bax; assay: Bcl-2 family protein (immunoblot) and mRNA (RT-PCR) in ICH rat brain; assay type: in vivo; conditions: TUDCA 10-200 mg/kg bw, ipsilateral hemisphere
# From the text: All animals received humane care in compliance with the institute's guidelines as outlined in “Guide for the Care and Use of Laboratory Animals” prepared by the National Academy of Sciences and published by the National Institutes of Health (NIH publication no. 86-23, revised 1985). Female Sprague-Dawley rats (250-300 grams (g); Harlan Sprague-Dawley, Inc., Indianapolis, Ind.) were anesthesized with an intramuscular injection of a mixture of ketamine and xylazine and set in supine in a Kopf headholder. The right carotid artery, external and internal branches, was exposed and the distal end of the external carotid freed and retracted to line with the internal carotid. A PE-10 polyethylene tube (Becton-Dickinson, Sparks, Md.) was then introduced from the external into the internal carotid artery, and the former was ligated to hold the tube. TUDCA (Calbiochem-Novabiochem Corp., San Diego, Calif.) was dissolved in phosphate buffer, pH 7.4 at […] milligrams per milliliter (mg/ml). Saline or TUDCA solution (1 milliliter per kilogram body weight (ml/kg bw)) were injected directly into the internal carotid artery, within 5 minutes. Different concentrations of TUDCA (10, 50, 100, and 200 mg/kg bw) were administered 1 hour prior to, or 1, 3, and 6 hours after collagenase injection. The polyethylene tube was finally removed, the end of the external carotid artery cauterized, and the wound closed. To induce stroke injury, the animals were placed in a stereotaxic apparatus and ICH induced by collagenase infusion (Rosenberg et al., Stroke 1990;21:801-807 and Chesney et al., Stroke 1995;26:312-316). In brief, a midline incision was made through the scalp to expose the skull. […] (0.5 microliters per minute (μL/min)) of saline containing 0.5 unit (U) bacterial collagenase (type VII; Sigma Chemical Co., St. Louis, Mo.) was made stereotaxically into the striatum with a 10-μl Hamilton syringe at the following coordinates: 0.4 millimeter (mm) anterior and 3.0 mm lateral to bregma and 5.0 mm ventral to the cortical surface. Once the infusion was complete, the Hamilton syringe was left in place for 3 minutes. Body temperature was maintained at 37° C. with a CMA/150 temperature controller throughout the surgery. The rats recovered from surgery in a cage containing food and heated by an incandescent light bulb. Neurological testing was performed at 2 days after induction of ICH. The animals were then sacrificed, and the brains removed and frozen at −70° C. for either serial cryostat sectioning, or RNA and protein extraction. In a subset of animals, serum and brain samples were collected for bile acid analysis.
# Changes in Bcl-2 family expression were determined by RT-PCR. Total RNA was extracted from brain tissue using the TRIZOL reagent from Life Technologies, Inc. (Grand Island, N.Y.). For RT-PCR, 5 μg of total RNA was reverse-transcribed using oligo(dT) (IDT, Inc., Coralville, Iowa) and SUPERSCRIPT II reverse transcriptase (Life Technologies Inc.). Specific oligonucleotide primer pairs were incubated with cDNA template for PCR amplification using the Expand High Fidelity PCR System from Roche Diagnostics, GmbH. […] Amplified PCR products were analyzed by agarose gel electrophoresis and ethidium bromide staining. […]
# [2] = system: collagenase-induced ICH; assay: Neurological testing: apomorphine-induced rotational behavior after ICH; assay type: in vivo, rat; conditions: 2 days after ICH; vehicle approximately 20
# From the text: All animals received humane care in compliance with the institute's guidelines as outlined in “Guide for the Care and Use of Laboratory Animals” prepared by the National Academy of Sciences and published by the National Institutes of Health (NIH publication no. 86-23, revised 1985). Female Sprague-Dawley rats (250-300 grams (g); Harlan Sprague-Dawley, Inc., Indianapolis, Ind.) were anesthesized with an intramuscular injection of a mixture of ketamine and xylazine and set in supine in a Kopf headholder. The right carotid artery, external and internal branches, was exposed and the distal end of the external carotid freed and retracted to line with the internal carotid. A PE-10 polyethylene tube (Becton-Dickinson, Sparks, Md.) was then introduced from the external into the internal carotid artery, and the former was ligated to hold the tube. […]
# The animals were tested for rotational behavior in response to apomorphine 2 days after surgery. Apomorphine (1 mg/kg bw; Sigma Chemical Co.) was injected subcutaneously, and rotations were determined by a computer-controlled Columbus Instruments Videomex-V system (Columbus, Ohio). […] Step initiation was assessed at 2 days after ICH by independently analyzing stepping behavior in the left and right forelimbs. […] The number of steps initiated by each limb was counted during a 1-minute period.
# [3] = system: phosphorylated Akt-1 Ser473, phosphorylated Bad Ser-136; assay: Immunoblotting of phosphorylated Akt-1 and phosphorylated Bad in ICH rat brain; assay type: in vivo
# From the text: All animals received humane care in compliance with the institute's guidelines as outlined in “Guide for the Care and Use of Laboratory Animals” prepared by the National Academy of Sciences and published by the National Institutes of Health (NIH publication no. 86-23, revised 1985). Female Sprague-Dawley rats (250-300 grams (g); Harlan Sprague-Dawley, Inc., Indianapolis, Ind.) were anesthesized with an intramuscular injection of a mixture of ketamine and xylazine and set in supine in a Kopf headholder. The right carotid artery, external and internal branches, was exposed and the distal end of the external carotid freed and retracted to line with the internal carotid. A PE-10 polyethylene tube (Becton-Dickinson, Sparks, Md.) was then introduced from the external into the internal carotid artery, and the former was ligated to hold the tube. TUDCA (Calbiochem-Novabiochem Corp., San Diego, Calif.) was dissolved in phosphate buffer, pH 7.4 at 400 milligrams per milliliter (mg/ml). Saline or TUDCA solution (1 milliliter per kilogram body weight (ml/kg bw)) were injected directly into the internal carotid artery, within 5 minutes. […]
# Bcl-2 family, NF-κB, IκB, p-Akt, and p-Bad protein levels were determined from total protein homogenates separated by 12% sodium dodecyl sulfate polyacrylamide gel electrophoresis (SDS-PAGE). […]
compound,measurement,setting,value
"C[C@H](CCC(=O)NCCS(=O)(=O)O)[C@H]1CC[C@H]2[C@@H]3[C@@H](O)C[C@@H]4C[C@H](O)CC[C@]4(C)[C@H]3CC[C@]12C [TUDCA, tauroursodeoxycholic acid]",Bax protein,[1],returned to contralateral hemisphere values
same,"Bcl-XL mRNA (RT-PCR, words)",[1],decreased
same,Bcl-xL protein levels,[1],slightly diminished
same,"transcriptional activation of Bcl-2 (mRNA, RT-PCR, words)",[1],further increased
same,Bcl-2 protein levels,[1]; dose-response study,remained elevated
same,rotational response to apomorphine,[2],less than 10 per 5 minutes
same,levels of phosphorylated Bad compared with untreated sham controls,[3]; brain of rats receiving TUDCA,~2 fold
same,expression of phosphorylated form of Akt-1,"[3]; hemisphere ipsilateral to ICH, TUDCA 10-200 mg/kg bw",largely restored
